Experimental data reported in publication PMC12279193 (Advanced Science, 2025).

Key:
[1] = molecular target: SARS-CoV S-trimer protein (Severe acute respiratory syndrome-related coronavirus, UniProt P59594); assay: biochemical; assay type: binding
[2] = molecular target: MERS-CoV S-trimer protein (Betacoronavirus England 1, UniProt K9N5Q8); assay: biochemical; assay type: binding
Chain of MERS-CoV S-trimer protein (K9N5Q8 18-1294 limits assumed): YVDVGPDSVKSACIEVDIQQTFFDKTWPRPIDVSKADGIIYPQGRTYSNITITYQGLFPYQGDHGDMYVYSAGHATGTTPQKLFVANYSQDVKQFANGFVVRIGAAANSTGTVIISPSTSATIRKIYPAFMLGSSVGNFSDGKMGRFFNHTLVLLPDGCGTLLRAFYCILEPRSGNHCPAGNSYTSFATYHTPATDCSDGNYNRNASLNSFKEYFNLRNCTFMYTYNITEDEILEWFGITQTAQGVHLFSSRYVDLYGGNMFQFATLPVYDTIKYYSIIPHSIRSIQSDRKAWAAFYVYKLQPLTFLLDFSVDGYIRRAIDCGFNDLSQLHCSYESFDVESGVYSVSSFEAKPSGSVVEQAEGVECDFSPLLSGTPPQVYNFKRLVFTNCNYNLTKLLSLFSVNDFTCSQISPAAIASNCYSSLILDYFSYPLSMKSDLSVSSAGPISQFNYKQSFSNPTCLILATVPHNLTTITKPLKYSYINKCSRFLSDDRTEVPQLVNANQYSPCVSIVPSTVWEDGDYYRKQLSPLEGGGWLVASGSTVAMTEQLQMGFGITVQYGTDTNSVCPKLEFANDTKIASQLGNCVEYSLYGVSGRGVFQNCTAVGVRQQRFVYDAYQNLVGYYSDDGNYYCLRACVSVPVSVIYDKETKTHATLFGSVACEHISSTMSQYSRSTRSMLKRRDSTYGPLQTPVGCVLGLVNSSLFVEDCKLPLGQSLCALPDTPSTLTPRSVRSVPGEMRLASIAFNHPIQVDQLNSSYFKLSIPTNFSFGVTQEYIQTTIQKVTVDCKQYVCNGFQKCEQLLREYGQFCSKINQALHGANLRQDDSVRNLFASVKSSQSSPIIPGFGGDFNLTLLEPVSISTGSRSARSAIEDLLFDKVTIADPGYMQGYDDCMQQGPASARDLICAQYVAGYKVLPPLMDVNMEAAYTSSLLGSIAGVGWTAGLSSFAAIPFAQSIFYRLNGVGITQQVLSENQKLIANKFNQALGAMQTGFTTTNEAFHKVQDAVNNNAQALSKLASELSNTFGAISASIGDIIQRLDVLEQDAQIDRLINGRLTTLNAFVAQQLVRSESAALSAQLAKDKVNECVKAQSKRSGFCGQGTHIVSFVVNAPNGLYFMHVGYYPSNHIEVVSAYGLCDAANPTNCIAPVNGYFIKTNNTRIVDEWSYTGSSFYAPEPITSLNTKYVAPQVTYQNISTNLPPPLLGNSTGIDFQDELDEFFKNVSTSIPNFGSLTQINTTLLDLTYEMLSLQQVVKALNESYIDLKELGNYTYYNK

CN(/N=C/c1ccccc1C(=O)O)c1nc(-c2ccccc2Cl)cs1 [S416] gave a Kd [1] of 27.2 µM and a Kd [2] of 55.4 µM.
